Source: patent publication US9162988B2, “Therapeutic or prophylactic agent for allergic dermatitis” (Toray Industries, Inc., priority 2007, dated 2015)
Counter-ions that a name gives are not always drawn.

These compounds were tested on BLAB/c mouse (assay: Inhibitory effect on skin swelling response in mouse allergic dermatitis model). Settings: IgE anti-DNP sensitized mouse, DNFB-induced; 50 mg/kg orally before the induction; 24 hours after administration.
Type: in vivo
Experimental: This method was carried out in accordance with the literature “Inflamm. Res., 47, 506-511 (1998)”.
To each BLAB/c mouse (female, 7 weeks old, JAPAN CHARLES RIVER), mouse IgE anti-DNP antibody (2.5 mg/kg, SEIKAGAKU CORPORATION) was intravenously administered to passively sensitize the mouse. Twenty four hours later, 20 μL of 0.38% 2,4-dinitrofluorobenzene (DNFB, SIGMA) dissolved in acetone:olive oil (4:1) was applied to the auricle of the sensitized mouse to induce inflammation. The thickness of the auricle was measured with time till 24 hours after the induction with Digimatic Indicator (Mitutoyo), and the ear swelling ratio was calculated according to the following equation: Ear Swelling Ratio (%)=(A−B)/B×100
A: Thickness of the right auricle after the induction
B: Thickness of the right auricle before the induction
Each test compound was dissolved in phosphate buffered saline and orally administered at a dose of 50 mg/kg before the induction.

**Q.** How did the “Inhibition ratio of the ear swelling (swelling response of the auricle)” value (from here on “Inhibition ratio of the ear swelling”) turn out when `COC1(c2ccc(/C=C/C[C@H](NC(=O)c3c(Cl)cccc3Cl)C(=O)[O-])cc2)CCOCC1.[Na+]` [Example 78, (S,E)-2-(2,6-Dichlorobenzamido)-5-[4-(4-methoxytetrahydropyran-4-yl)-phenyl]pent-4-enoic acid sodium salt] was run?
**A.** Its value is 62.5%.

**Q.** How did the “Inhibition ratio of the ear swelling” value turn out when `CN(c1ccc(/C=C/C[C@H](NC(=O)c2c(Cl)cccc2Cl)C(=O)[O-])cc1)c1ncccn1.[Na+]` [Example 81, (S,E)-2-(2,6-Dichlorobenzamido)-5-[4-(methyl-pyrimidin-2-ylamino)phenyl]pent-4-enoic acid sodium salt] was run?
**A.** Its value is 97.9%.

**Q.** `CC(C)N(c1ccc(/C=C/CC(NC(=O)c2c(Cl)cccc2Cl)C(=O)O)cc1)c1ncccn1` (centres unmarked) [Example 28, (E)-2-(2,6-Dichlorobenzamido)-5-[4-(isopropyl-pyrimidin-2-ylamino)phenyl]pent-4-enoic acid] was tested. Which “Inhibition ratio of the ear swelling” value did it give?
**A.** The value was 98.5%.

**Q.** For `CCOC1(c2ccc(/C=C/CC(NC(=O)c3c(Cl)cccc3Cl)C(=O)O)cc2)CCOCC1` (centres unmarked) [Example 6, (E)-2-(2,6-Dichlorobenzamido)-5-[4-(4-ethoxytetrahydropyran-4-yl)-phenyl]pent-4-enoic acid], which “Inhibition ratio of the ear swelling” value is on record?
**A.** Its value is 91.2%.

**Q.** Which “Inhibition ratio of the ear swelling” value does the source give for `COC1(c2ccc(/C=C/CC(NC(=O)c3c(Cl)cccc3Cl)C(=O)O)cc2)CCOCC1` (centres unmarked) [Example 4, (E)-2-(2,6-Dichlorobenzamido)-5-[4-(4-methoxytetrahydropyran-4-yl)-phenyl]pent-4-enoic acid] here?
**A.** Its value is 79.8%.

**Q.** `CC(C)N(c1ccc(/C=C/C[C@H](NC(=O)c2c(Cl)cccc2Cl)C(=O)O)cc1)c1ncccn1` [Example 83, (S,E)-2-(2,6-Dichlorobenzamido)-5-[4-(isopropyl-pyrimidin-2-ylamino)phenyl]pent-4-enoic acid] was tested. Which “Inhibition ratio of the ear swelling” value did it give?
**A.** The value was 57.4%.

**Q.** For `CN(c1ccc(/C=C/C[C@H](NC(=O)c2c(Cl)cccc2Cl)C(=O)O)cc1)c1ncccn1` [Example 80, (S,E)-2-(2,6-Dichlorobenzamido)-5-[4-(methyl-pyrimidin-2-ylamino)phenyl]pent-4-enoic acid], which “Inhibition ratio of the ear swelling” value is on record?
**A.** The value was 86.3%.

**Q.** `COCCOc1ccc(/C=C/CC(NC(=O)c2ccc(CNS(=O)(=O)c3cc(Cl)cc(Cl)c3)cc2)C(=O)[O-])cc1.[Na+]` (centres unmarked) [(XXII), (E)-2-(4-((3,5-dichlorophenylsulfonamide)methyl)benzamide)-5-(4-(2-methoxyethoxy)phenyl)pent-4-enoic acid sodium salt, reference compound] was tested. Which “Inhibition ratio of the ear swelling” value did it give?
**A.** Its value is 2.3%.

**Q.** How did the “Inhibition ratio of the ear swelling” value turn out when `COC1(c2ccc(/C=C/C[C@H](NC(=O)c3c(Cl)cccc3Cl)C(=O)O)cc2)CCOCC1` [Example 77, (S,E)-2-(2,6-Dichlorobenzamido)-5-[4-(4-methoxytetrahydropyran-4-yl)-phenyl]pent-4-enoic acid] was run?
**A.** The value was 85.8%.

**Q.** How did the “Inhibition ratio of the ear swelling” value turn out when `CN(c1ccc(/C=C/CC(NC(=O)c2c(Cl)cccc2Cl)C(=O)O)cc1)c1ncccn1` (centres unmarked) [Example 22, (E)-2-(2,6-Dichlorobenzamido)-5-[4-(methyl-pyrimidin-2-ylamino)phenyl]pent-4-enoic acid] was run?
**A.** Its value is 84.7%.

**Q.** `CC(C)N(c1ccc(/C=C/C[C@H](NC(=O)c2c(Cl)cccc2Cl)C(=O)[O-])cc1)c1ncccn1.[Na+]` [Example 84, (S,E)-2-(2,6-Dichlorobenzamido)-5-[4-(isopropyl-pyrimidin-2-ylamino)phenyl]pent-4-enoic acid sodium salt] was tested. Which “Inhibition ratio of the ear swelling” value did it give?
**A.** The value was 66.9%.

These compounds were tested on Jurkat cells (assay: Inhibitory effect on leukocyte functions: adhesion of Jurkat cells to ligand-expressing cells or ligand-immobilized plate). Settings: Homo sapiens, 0.5 h, read-out: IC50 (concentration at which the number of adherent cells is reduced by 50%).
Type: cell-based
Experimental: Jurkat cells which are a cell line originated from human acute T cell lymphoma were allowed to react with BCECF-AM at 37° C. for 20 minutes to fluorescently label the cells. The fluorescently labelled Jurkat cells were allowed to react with ligand-expressing cells or with a ligand-immobilized plate at 37° C. for 30 minutes. After removing non-adherent cells by washing, 1% NP40 was added to lyse the adherent cells, and fluorescence intensity was measured with Cytofluor 2300 (Millipore). From the obtained fluorescence intensity, the number of adherent cells was calculated. Each test compound was reacted with the Jurkat cells before the beginning of the adhesion reaction. In Table 18, the IC50 of each compound (i.e. the concentration at which the number of adherent cells is reduced by 50%) is shown.

**Q.** For `O=C(NC(C/C=C/c1ccc(N(CC2CC2)c2ncccn2)cc1)C(=O)O)c1c(Cl)cccc1Cl` (centres unmarked) [Example 53, (E)-5-[4-(Cyclopropylmethyl-pyrimidin-2-ylamino)phenyl]-2-(2,6-dichlorobenzamido)pent-4-enoic acid sodium salt], which IC50 is on record?
**A.** The IC50 was 120 nM.

**Q.** How did the IC50 turn out when `CC(C)CN(c1ccc(/C=C/CC(NC(=O)c2c(Cl)cccc2Cl)C(=O)O)cc1)c1ncccn1` (centres unmarked) [Example 55, (E)-2-(2,6-Dichlorobenzamido)-5-[4-(isobutyl-pyrimidin-2-ylamino)phenyl]pent-4-enoic acid sodium salt] was run?
**A.** The IC50 was 420 nM.

**Q.** Which IC50 does the source give for `CCCCN(c1ccc(/C=C/CC(NC(=O)c2c(Cl)cccc2Cl)C(=O)O)cc1)c1ncccn1` (centres unmarked) [Example 37, (E)-5-(4-Butyl-pyrimidin-2-yl-amino)-phenyl]-2-(2,6-dichlorobenzamido)-pent-4-enoic acid sodium salt] here?
**A.** The IC50 was 160 nM.
